Laboratory results from ChEMBL document CHEMBL1147118, “Efficacy of oseltamivir therapy in ferrets inoculated with different clades of H5N1 influenza virus” (2007).
The source made the active and inactive calls. The calls are words filed in the database; no cut-off is given here.

Assays:
[1] = system: Influenza A virus; assay: Inhibition of 10^2 EID50 influenza A/Vietnam/1203/04 H5N1 virus replication in ferrets spleen at 10 mg/kg after 24 hrs of inoculum for 5 days; format: functional, organism-based; design: dose 10 mg/kg
[2] = system: Influenza A virus; assay: Antiviral activity against 10^6 EID50 influenza A/turkey/15/06 H5N1 virus inoculated ferrets assessed as weight loss at 10 mg/kg twice daily after 24 hrs inoculum for 5 days; format: functional, Influenza A virus (A/Turkey/15/2006(H5N1))
[3] = system: Influenza A virus; assay: Survival of 10^2 EID50 influenza A/Vietnam/1203/04 H5N1 virus inoculated ferrets at 10 mg/kg after 24 hrs of inoculum for 5 days; format: functional, organism-based; design: dose 10 mg/kg
[4] = system: Influenza A virus; assay: Inhibition of 10^2 EID50 influenza A/Vietnam/1203/04 H5N1 virus replication in ferrets spleen at 25 mg/kg after 24 hrs of inoculum for 5 days; format: functional, organism-based; design: dose 25 mg/kg
[5] = system: Influenza A virus; assay: Antiviral activity against 10^6 EID50 influenza A/turkey/15/06 H5N1 virus inoculated ferrets assessed as viral titer in brain at 10 mg/kg after 24 hrs of inoculum for 5 days; format: functional, Influenza A virus (A/Turkey/15/2006(H5N1))
[6] = system: Influenza A virus; assay: Inhibition of 10^2 EID50 influenza A/Vietnam/1203/04 H5N1 virus replication in ferrets liver at 25 mg/kg after 24 hrs of inoculum for 5 days; format: functional, organism-based; design: dose 25 mg/kg
[7] = system: Influenza A virus; assay: Survival of 10 EID50 influenza A/Vietnam/1203/04 H5N1 virus inoculated ferrets at 5 mg/kg after 4 hrs of inoculum for 5 days; format: functional, organism-based; design: dose 5 mg/kg
[8] = system: Influenza A virus; assay: Inhibition of 10^2 EID50 influenza A/Vietnam/1203/04 H5N1 virus replication in ferrets liver at 10 mg/kg after 24 hrs of inoculum for 5 days; format: functional, organism-based; design: dose 10 mg/kg
[9] = system: Influenza A virus; assay: Inhibition of 10^2 EID50 influenza A/Vietnam/1203/04 H5N1 virus replication in ferrets lungs at 25 mg/kg after 24 hrs of inoculum for 5 days; format: functional, organism-based; design: dose 25 mg/kg
[10] = system: Influenza A virus; assay: Inhibition of 10^2 EID50 influenza A/Vietnam/1203/04 H5N1 virus replication in ferrets lungs at 10 mg/kg after 24 hrs of inoculum for 5 days; format: functional, organism-based; design: dose 10 mg/kg
[11] = system: Influenza A virus; assay: Antiviral activity against 10^6 EID50 influenza A/turkey/15/06 H5N1 virus inoculated ferrets assessed as viral titer in lungs at 10 mg/kg after 24 hrs of inoculum for 5 days; format: functional, Influenza A virus (A/Turkey/15/2006(H5N1))
[12] = system: Influenza A virus; assay: Survival of 10^2 EID50 influenza A/Vietnam/1203/04 H5N1 virus inoculated ferrets at 25 mg/kg after 24 hrs of inoculum for 5 days; format: functional, organism-based; design: dose 25 mg/kg
[13] = system: Influenza A virus; assay: Antiviral activity against 10^2 EID50 influenza A/Vietnam/1203/04 H5N1 virus inoculated ferrets assessed as weight loss at 25 mg/kg after 24 hrs of inoculum for 5 days; format: functional
[14] = system: Influenza A virus; assay: Antiviral activity against 10^2 EID50 influenza A/Vietnam/1203/04 H5N1 virus inoculated ferrets assessed as inhibition of viral replication in lungs at 5 mg/kg after 4 hrs of inoculum for 5 days; format: functional, organism-based; design: dose 5 mg/kg
[15] = system: Influenza A virus; assay: Antiviral activity against 10^2 EID50 influenza A/Vietnam/1203/04 H5N1 virus inoculated ferrets assessed as maximal change in weight loss at 5 mg/kg after 4 hrs of inoculum for 5 days; format: functional
[16] = system: Influenza A virus; assay: Antiviral activity against 10^2 EID50 influenza A/Vietnam/1203/04 H5N1 virus inoculated ferrets assessed as day of death at 10 mg/kg after 24 hrs of inoculum for 5 days; format: functional
[17] = system: Influenza A virus; assay: Antiviral activity against 10^2 EID50 influenza A/Vietnam/1203/04 H5N1 virus inoculated ferrets assessed as increase in temperature at 25 mg/kg after 24 hrs of inoculum for 5 days; format: functional
[18] = system: Influenza A virus; assay: Antiviral activity against 10^2 EID50 influenza A/Vietnam/1203/04 H5N1 virus inoculated ferrets assessed as inhibition of virus spread in brain at 5 mg/kg after 4 hrs of inoculum for 5days; format: functional, organism-based; design: dose 5 mg/kg
[19] = system: Influenza A virus; assay: Antiviral activity against 10^2 EID50 influenza A/Vietnam/1203/04 H5N1 virus inoculated ferrets assessed as inhibition of virus spread in spleen at 5 mg/kg after 4 hrs of inoculum for 5 days; format: functional, organism-based; design: dose 5 mg/kg
[20] = system: Influenza A virus; assay: Antiviral activity against 10 EID50 influenza A/Vietnam/1203/04 H5N1 virus inoculated ferrets assessed as day of death at 5 mg/kg after 4 hrs of inoculum for 5 days; format: functional
[21] = system: Influenza A virus; assay: Antiviral activity against 10^2 EID50 influenza A/Vietnam/1203/04 H5N1 virus inoculated ferrets assessed as increase in temperature at 10 mg/kg after 24 hrs of inoculum for 5 days; format: functional
[22] = system: Influenza A virus; assay: Antiviral activity against 10^2 EID50 influenza A/Vietnam/1203/04 H5N1 virus inoculated ferrets assessed as inhibition of viral replication in small intestine at 5 mg/kg after 4 hrs of inoculum for 5 days; format: functional, organism-based; design: dose 5 mg/kg
[23] = system: Influenza A virus; assay: Antiviral activity against 10^6 EID50 influenza A/turkey/15/06 H5N1 virus inoculated ferrets assessed as increase in temperature at 10 mg/kg twice daily after 24 hrs inoculum for 5 days; format: functional, Influenza A virus (A/Turkey/15/2006(H5N1))
[24] = system: Influenza A virus; assay: Antiviral activity against 10^2 EID50 influenza A/Vietnam/1203/04 H5N1 virus inoculated ferrets assessed as day of death at 25 mg/kg after 24 hrs of inoculum for 5 days; format: functional
[25] = system: Influenza A virus; assay: Antiviral activity against 10^2 EID50 influenza A/Vietnam/1203/04 H5N1 virus inoculated ferrets assessed as weight loss at 10 mg/kg after 24 hrs of inoculum for 5 days; format: functional
[26] = system: Influenza A virus; assay: Antiviral activity against 10 EID50 influenza A/Vietnam/1203/04 H5N1 virus inoculated ferrets assessed as increase in temperature at 5 mg/kg after 4 hrs of inoculum for 5 days; format: functional
[27] = system: Influenza A virus; assay: Antiviral activity against 10 EID50 influenza A/Vietnam/1203/04 H5N1 virus inoculated ferrets assessed as weight loss at 5 mg/kg after 4 hrs of inoculum for 5 days; format: functional
[28] = system: Influenza A virus; assay: Inhibition of 10^2 EID50 influenza A/Vietnam/1203/04 H5N1 virus replication in ferrets brain at 25 mg/kg after 24 hrs of inoculum for 5 days; format: functional, organism-based; design: dose 25 mg/kg
[29] = system: Influenza A virus; assay: Survival of 10^6 EID50 influenza A/turkey/15/06 H5N1 virus inoculated ferrets at 10 mg/kg twice daily after 24 hrs inoculum for 5 days; format: functional, organism-based; design: dose 10 mg/kg; details: Influenza A virus (A/Turkey/15/2006(H5N1))
[30] = system: Influenza A virus; assay: Antiviral activity against 10^2 EID50 influenza A/Vietnam/1203/04 H5N1 virus inoculated ferrets assessed as day of death at 5 mg/kg after 4 hrs of inoculum for 5 days; format: functional
[31] = system: Influenza A virus; assay: Antiviral activity against 10^2 EID50 influenza A/Vietnam/1203/04 H5N1 virus inoculated ferrets assessed as inhibition of virus spread in liver at 5 mg/kg after 4 hrs of inoculum for 5 days; format: functional, organism-based; design: dose 5 mg/kg
[32] = system: Influenza A virus; assay: Survival of 10^2 EID50 influenza A/Vietnam/1203/04 H5N1 virus inoculated ferrets at 5 mg/kg after 4 hrs of inoculum for 5 days; format: functional, organism-based; design: dose 5 mg/kg
[33] = system: Influenza A virus; assay: Antiviral activity against 10^2 EID50 influenza A/Vietnam/1203/04 H5N1 virus inoculated ferrets assessed as increase in temperature at 5 mg/kg after 4 hrs of inoculum for 5 days; format: functional
[34] = system: Influenza A virus; assay: Inhibition of influenza A/Vietnam/1203/04 virus replication in ferrets upper respiratory tract at 10 mg/kg twice daily after 24 hrs of inoculum for 5 days; format: functional, organism-based; design: dose 10 mg/kg

CCOC(=O)C1=C[C@@H](OC(CC)CC)[C@H](NC(C)=O)[C@@H](N)C1 [OSELTAMIVIR]
Activity [1]: Active
Activity [2]: 17.9%
Activity [3]: inactive
Activity [4]: Active
log10EID50/g [5]: <0.75
Activity [6]: Active
Activity [7]: Active
Activity [8]: Active
Activity [9]: Active
Activity [10]: Active
log10EID50/g [11]: <0.75
Activity [12]: Active
Activity [13]: 13.4%
Activity [14]: Active
Activity [15]: 20.4%
Activity [16]: 7.3 days
Activity [17]: 6%
Activity [18]: inactive
Activity [19]: inactive
Activity [20]: >21 days
Activity [21]: 5.7%
Activity [22]: Active
Activity [23]: 6%
Activity [24]: >21 days
Activity [25]: 22.1%
Activity [26]: 5%
Activity [27]: 8.8%
Activity [28]: inactive
Activity [29]: Active
Activity [30]: 21 days
Activity [31]: inactive
Activity [32]: Active
Activity [33]: 3.4%
Activity [34]: inactive
